# Assay results as given in US11571405B2, “Compositions for improving sexual function” (INXO A/S, priority 2018, dated 2023).
# Legend:
# [1] = Inventors' findings on amounts of L-arginine and L-citrulline in the unit dosage; type: in vivo
# Excerpt: Furthermore, higher amounts of L-arginine worsened the organoleptic properties of the unit dosage.
# In an embodiment of the invention, the unit dosage comprises L-citrulline or a physiologically acceptable salt or hydrate thereof in the range from 0.5-3.0 g, such as 0.5-2.9 g, preferably 0.5-2.8 g, more preferably 0.5-2.7 g, such as 0.7-2.0 g, preferably 0.9-2.0 g, more preferably 1.1-2.0 g, even more preferably 1.3-2.0 g, most preferably 1.5-2.0 g.
# [2] = oral; cited from earlier work
Structure (SMILES),amount above which side effects occurred in some instances (e.g. stomachache) [1],most efficacious amount in the unit dosage [1],"level above which some adverse effects, most commonly diarrhea, have been seen [2]",amount above which efficacy of a unit dosage was not improved further (plateau of efficacy) [1]
N=C(N)NCCC[C@H](N)C(=O)O [L-arginine],above 10 g,6.0 g,above 20 g per day,–
NC(=O)NCCC[C@H](N)C(=O)O [L-citrulline],–,–,–,above 2.0 g
